Assay results taken from patent US11174251B2, “Compositions and methods for inhibition of the JAK pathway” (Rigel Pharmaceuticals, Inc., priority 2010, dated 2021).
Structures can show the parent of a compound that is named as a salt.

Molecular target: T1, JAK3 (Homo sapiens, UniProt P52333)
T1 construct: The Ramos B-cell line was acquired from ATCC (ATCC Catalog No. CRL-1596); host or cells: Ramos B-cell line (human)
T1 sequence (P52333 1-1124): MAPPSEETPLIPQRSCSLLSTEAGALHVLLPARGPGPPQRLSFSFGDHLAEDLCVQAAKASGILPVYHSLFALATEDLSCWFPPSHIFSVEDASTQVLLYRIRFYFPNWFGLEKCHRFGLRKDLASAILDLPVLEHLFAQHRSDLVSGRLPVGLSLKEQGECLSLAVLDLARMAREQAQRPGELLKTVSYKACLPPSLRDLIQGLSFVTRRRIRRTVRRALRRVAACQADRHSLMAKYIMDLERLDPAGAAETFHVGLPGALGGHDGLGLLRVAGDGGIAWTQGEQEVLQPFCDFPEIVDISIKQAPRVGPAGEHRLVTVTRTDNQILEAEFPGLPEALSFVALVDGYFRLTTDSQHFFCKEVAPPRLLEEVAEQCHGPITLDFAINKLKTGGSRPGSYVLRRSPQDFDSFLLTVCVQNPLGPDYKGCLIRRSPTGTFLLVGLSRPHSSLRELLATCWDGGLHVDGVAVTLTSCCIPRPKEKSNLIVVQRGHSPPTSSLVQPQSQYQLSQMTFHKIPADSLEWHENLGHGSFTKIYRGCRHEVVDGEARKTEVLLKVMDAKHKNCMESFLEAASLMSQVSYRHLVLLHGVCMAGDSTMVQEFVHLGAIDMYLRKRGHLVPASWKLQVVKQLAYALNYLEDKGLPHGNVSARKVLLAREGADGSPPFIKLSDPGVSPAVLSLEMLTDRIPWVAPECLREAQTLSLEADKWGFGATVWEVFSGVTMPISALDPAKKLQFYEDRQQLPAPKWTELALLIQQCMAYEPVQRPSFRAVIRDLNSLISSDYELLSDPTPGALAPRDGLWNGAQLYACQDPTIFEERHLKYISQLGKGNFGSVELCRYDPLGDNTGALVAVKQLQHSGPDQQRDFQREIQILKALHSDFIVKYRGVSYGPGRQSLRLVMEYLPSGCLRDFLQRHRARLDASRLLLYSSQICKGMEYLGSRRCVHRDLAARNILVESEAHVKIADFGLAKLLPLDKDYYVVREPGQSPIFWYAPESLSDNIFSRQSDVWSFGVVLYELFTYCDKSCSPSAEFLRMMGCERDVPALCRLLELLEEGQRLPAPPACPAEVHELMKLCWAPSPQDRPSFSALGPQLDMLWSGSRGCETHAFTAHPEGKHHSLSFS
Assay: Assay for CD23 expression on Ramos B-cells stimulated by IL-4 (Table IV: ability to inhibit JAK3 activity)
Format: cell-based
Conditions: tested under conditions described in Example 3 (so in the source)
Text: One means of assaying for such inhibition is detection of the effect of the 2,4-pyrimidinediamine compounds on the upregulation of downstream gene products. In the Ramos/IL4 assay, B-cells are stimulated with the cytokine Interleukin-4 (IL-4) leading to the activation of the JAK/Stat pathway through phosphorylation of the JAK family kinases, JAK1 and JAK3, which in turn phosphorylate and activate the transcription factor Stat-6. […] To study the effect of inhibitors (for example, the 2,4-substituted pyrimindinediamine compounds described herein) on the JAK1 and JAK3 kinases, human Ramos B cells are stimulated with human IL-4. 20 to 24 hours post stimulation, cells are stained for upregulation of CD23 and analyzed using FACS.
B-cells stimulated with cytokine Interleukin-4 (IL-4) activate the JAK/Stat pathway through phosphorylation of the JAK family kinases, JAK-1 and JAK-3, which in turn phosphorylate and activate the transcription factor Stat-6. […] To study the effect of inhibitors on the JAK family kinases, human Ramos B cells were stimulated with human IL-4 and the surface expression of CD23 was measured.
The day before the experiment, Ramos B-cells were diluted to 3.5×10^5 cells/mL to ensure that they were in a logarithmic growth phase.
Cells were spun down and suspended in RPMI with 5% serum. 5×10^4 cells were used per point in a 96-well tissue culture plate. Cells were pre-incubated with compound or DMSO (Sigma-Aldrich, St. Louis, Mo., Cat No. D2650) vehicle control for 1 hour in a 37° C. incubator. Cells were then stimulated with IL-4 (Peprotech Inc., Rocky Hill, N.J., Cat No. 200-04) for a final concentration of 50 units/mL for 20-24 hours. […] Detection was performed using a BD LSR I System Flow Cytometer, purchased from Becton Dickinson Biosciences of San Jose, Calif.
The compound designations in Table IV are consistent with those of Tables I-II above.

IC50 | Compound
< 500 nM | Cc1ccc(Nc2ncc(F)c(Nc3ccc4oc(=O)[nH]c4c3)n2)cc1C#N [Compound I-1, 5-(5-fluoro-4-(2-oxo-2,3-dihydrobenzo[d]oxazol-5-ylamino)pyrimidin-2-ylamino)-2-methylbenzonitrile formate salt]
< 500 nM | NC(=O)c1ccc(Nc2nccc(Nc3ccc4oc(=O)[nH]c4c3)n2)cc1 [Compound I-2, 4-(4-(2-oxo-2,3-dihydrobenzo[d]oxazol-5-ylamino)pyrimidin-2-ylamino)benzamide trifluoroacetate salt]
500 to 5000 nM | NC(=O)c1cccc(Nc2nccc(Nc3ccc4oc(=O)[nH]c4c3)n2)c1 [Compound I-3, 3-(4-(2-oxo-2,3-dihydrobenzo[d]oxazol-5-ylamino)pyrimidin-2-ylamino)benzamide trifluoroacetate salt]
< 500 nM | O=c1[nH]c2cc(Nc3nc(Nc4ccccc4)ncc3Cl)ccc2o1 [Compound I-4, 5-(5-chloro-2-(phenylamino)pyrimidin-4-ylamino)benzo[d]oxazol-2(3H)-one trifluoroacetate salt]
< 500 nM | Cc1ccc(Nc2ncc(Cl)c(Nc3ccc4oc(=O)[nH]c4c3)n2)cc1C [Compound I-5, 5-(5-chloro-2-(3,4-dimethylphenylamino)pyrimidin-4-ylamino)benzo[d]oxazol-2(3H)-one trifluoroacetate salt]
> 10000 nM | Cc1cc(Nc2ncc(Cl)c(Nc3ccc4oc(=O)[nH]c4c3)n2)cc(C)c1C [Compound I-6, 5-(5-chloro-2-(3,4,5-trimethylphenylamino)pyrimidin-4-ylamino)benzo[d]oxazol-2(3H)-one trifluoroacetate salt]
< 500 nM | COc1c(F)ccc(Nc2ncc(Cl)c(Nc3ccc4oc(=O)[nH]c4c3)n2)c1F [Compound I-7, 5-(5-chloro-2-(2,4-difluoro-3-methoxyphenylamino)pyrimidin-4-ylamino)benzo[d]oxazol-2(3H)-one trifluoroacetate salt]
< 500 nM | O=c1[nH]c2cc(Nc3nc(Nc4cc(F)cc(Cl)c4)ncc3Cl)ccc2o1 [Compound I-8, 5-(5-chloro-2-(3-chloro-5-fluorophenylamino)pyrimidin-4-ylamino)benzo[d]oxazol-2(3H)-one formate salt]
< 500 nM | Cc1ccc(Nc2ncc(Cl)c(Nc3ccc4oc(=O)[nH]c4c3)n2)cc1C(F)(F)F [Compound I-9, 5-(5-chloro-2-(4-methyl-3-(trifluoromethyl)phenylamino)pyrimidin-4-ylamino)benzo[d]oxazol-2(3H)-one]
< 500 nM | Cc1cc(C)cc(Nc2ncc(Cl)c(Nc3ccc4oc(=O)[nH]c4c3)n2)c1 [Compound I-10, 5-(5-chloro-2-(3,5-dimethylphenylamino)pyrimidin-4-ylamino)benzo[d]oxazol-2(3H)-one trifluoroacetate salt]
< 500 nM | NC(=O)c1ccc(Nc2ncc(Cl)c(Nc3ccc4oc(=O)[nH]c4c3)n2)cc1 [Compound I-11, 4-(5-chloro-4-(2-oxo-2,3-dihydrobenzo[d]oxazol-5-ylamino)pyrimidin-2-ylamino)benzamide trifluoroacetate salt]
< 500 nM | COc1cc(Nc2ncc(Cl)c(Nc3ccc4oc(=O)[nH]c4c3)n2)cc(C(F)(F)F)c1 [Compound I-12, 5-(5-chloro-2-(3-methoxy-5-(trifluoromethyl)phenylamino)pyrimidin-4-ylamino)benzo[d]oxazol-2(3H)-one]
500 to 5000 nM | O=c1[nH]c2cc(Nc3ccnc(Nc4cc(F)cc(F)c4)n3)ccc2o1 [Compound I-13, 5-(2-(3,5-difluorophenylamino)pyrimidin-4-ylamino)benzo[d]oxazol-2(3H)-one trifluoroacetate salt]
< 500 nM | O=c1[nH]c2cc(Nc3nc(Nc4cc(F)cc(F)c4)ncc3Cl)ccc2o1 [Compound I-14, 5-(5-chloro-2-(3,5-difluorophenylamino)pyrimidin-4-ylamino)benzo[d]oxazol-2(3H)-one trifluoroacetate salt]
< 500 nM | O=c1[nH]c2cc(Nc3nc(Nc4ccc(C(F)(F)F)cc4)ncc3Cl)ccc2o1 [Compound I-15, 5-(5-chloro-2-(4-(trifluoromethyl)phenylamino)pyrimidin-4-ylamino)benzo[d]oxazol-2(3H)-one trifluoroacetate salt]
< 500 nM | Cc1cc(Nc2ncc(Br)c(Nc3ccc4oc(=O)[nH]c4c3)n2)cc(C)c1C [Compound I-16, 5-(5-bromo-2-(3,4,5-trimethylphenylamino)pyrimidin-4-ylamino)benzo[d]oxazol-2(3H)-one formate salt]
< 500 nM | Cc1ccc(Nc2ncc(C)c(Nc3ccc4oc(=O)[nH]c4c3)n2)cc1N(C)C [Compound I-17, 5-[2-(3-Dimethylamino-4-methyl-phenylamino)-5-methyl-pyrimidin-4-ylamino]-3H-benzooxazol-2-one]
< 500 nM | C#Cc1cnc(Nc2cc(C)c(C)c(C)c2)nc1Nc1ccc2oc(=O)[nH]c2c1 [Compound I-18, 5-[5-Ethynyl-2-(3,4,5-trimethyl-phenylamino)-pyrimidin-4-ylamino]-3H-benzooxazol-2-one trifluoroacetate salt]
< 500 nM | COc1cccc(Nc2ncc(C)c(Nc3ccc4oc(=O)[nH]c4c3)n2)c1F [Compound I-19, 5-[2-(2-Fluoro-3-methoxy-phenylamino)-5-methyl-pyrimidin-4-ylamino]-3H-benzooxazol-2-one]
500 to 5000 nM | COc1cccc(Nc2ncc(F)c(Nc3ccc4oc(=O)[nH]c4c3)n2)c1F [Compound I-20, 5-(5-fluoro-2-(2-fluoro-3-methoxyphenylamino)pyrimidin-4-ylamino)benzo[d]oxazol-2(3H)-one trifluoroacetate salt]
< 500 nM | COc1cccc(Nc2ncc(Cl)c(Nc3ccc4oc(=O)[nH]c4c3)n2)c1F [Compound I-21, 5-(5-chloro-2-(2-fluoro-3-methoxyphenylamino)pyrimidin-4-ylamino)benzo[d]oxazol-2(3H)-one trifluoroacetate salt]
< 500 nM | COc1cccc(Nc2ncc(Br)c(Nc3ccc4oc(=O)[nH]c4c3)n2)c1F [Compound I-22, 5-(5-bromo-2-(2-fluoro-3-methoxyphenylamino)pyrimidin-4-ylamino)benzo[d]oxazol-2(3H)-one trifluoroacetate salt]
500 to 5000 nM | COc1cccc(Nc2nccc(Nc3ccc4oc(=O)[nH]c4c3)n2)c1F [Compound I-23, 5-(2-(2-fluoro-3-methoxyphenylamino)pyrimidin-4-ylamino)benzo[d]oxazol-2(3H)-one]
< 500 nM | Cc1cnc(Nc2cccc(N(C)C)c2)nc1Nc1ccc2oc(=O)[nH]c2c1 [Compound I-24, 5-[2-(3-Dimethylamino-phenylamino)-5-methyl-pyrimidin-4-ylamino]-3H-benzooxazol-2-one trifluoroacetate salt]
< 500 nM | Cc1cnc(Nc2ccc(N(C)C)cc2)nc1Nc1ccc2oc(=O)[nH]c2c1 [Compound I-25, 5-[2-(4-Dimethylamino-phenylamino)-5-methyl-pyrimidin-4-ylamino]-3H-benzooxazol-2-one]
500 to 5000 nM | Cc1cnc(N(C)c2ccccc2)nc1Nc1ccc2oc(=O)[nH]c2c1 [Compound I-26, 5-[5-Methyl-2-(methyl-phenyl-amino)-pyrimidin-4-ylamino]-3H-benzooxazol-2-one]
